Measurements: patent US20250154202A1, “CYCLIC EPITOPE TAGS” (BIONTECH SE, priority 2022, published 2025)
Bridge positions count the residues as written; N and C are the ends. Primed or numbered codes have the meaning given here. Peptide text beside a SMILES is read from it. C(Alexa680) = cysteine labeled with Alexa680 (AlexaFluor680); PEG6′ = PEG6 spacer

Key:
[1] = test system: target expressing cells previously incubated with the NbALFA×anti-Target Adaptor-Protein; assay: FACS cell binding analysis of linear and cyclic ALFA-peptides (AlexaFluor680); assay type: cell-based; conditions: for binding to target expressing cells (AlexaFluor680 signal): 4 nM to 1024 nM peptide, 30 min at 4° C., after 100 nM NbALFA×anti-Target Adaptor-Protein; for binding on the controls: target-negative cells, pre-incubation with PBS or NbALFA×non-binder
Protocol: Cells were seeded in a 96-well microtiter plate (round button) to a final density of 2×10^5 and incubated in the presence of 100 nM NbALFA×anti-Target purified Adaptor-Protein (binds with one moiety to ALFA peptide and with the other moiety to cell presented target) or, as a negative control in the presence of 100 nM NbALFA×non-binder (binds with one moiety to the ALFA peptide and with the other moiety to a target which is not available in this experiment) or PBS for 30 min at 4° C. Cells were then washed and incubated with different concentrations (4 nM, 16 nM, 64 nM, 256 nM, and 1024 nM) of the linear [Ac(C-Alexa680)(PEG6)PSRLEEELRRRLTE-NH2] or cyclic [Ac(C-Alexa680)(PEG6)PSRLE(E)ELR(K)RLTE-NH2] ALFA peptide for another 30 min at 4° C. After rewashing, the cells were measured in FACS Canto II (BD Biosciences). AlexaFluor680 signal was used to detect the binding of ALFA peptides. Therefore, excitation Laser Line 633 nm was used to detect the AlexaFluor 680 signal.

anti-ALFA VHH = assay: binding affinity to the anti-ALFA VHH (log(agonist) vs. response, variable slope)
NbALFA = assay: SPR measurements of NbALFA binding (Biacore T200, multi cycle kinetics, 1:1 binding model); conditions: 25° C., HBS-EP+ buffer, biotinylated NbALFA captured
Protocol: Affinity measurements were performed using a Biacore T200 (GE Healthcare, Biacore T200 control Software 3.2). […] A freshly docked Biotin CAPture chip was rehydrated overnight in the instrument (standby mode). […] The immobilization of the Nanobody was done for 180 s at 10 μL/min on FC2 followed by quenching of unbound streptavidin by 0.1 mM biocytin for 60 s and 30 μL/min on both flow cells. […] After each cycle, the surface was regenerated for 120 s with 10 μL/min using regeneration solution. All measurements were performed at 25° C. using HBS-EP+ buffer (Cytiva Europe, Cat. no BR100669). The control responses from FC1 were subtracted by the sample measurement in FC2 (FC2−FC1) followed by subtraction of the 0 nM blank injection. Resulting binding curves of this multi cycle kinetic experiment were fitted using the Biacore T200 Evaluation Software 3.2 and a 1:1 binding model.

[2] = Plasma stability, human plasma; conditions: human plasma, 37° C.
Protocol: (§1) Plasma stability measurements were performed by spiking 5 μl of a 1 mM compound stock solution in DMSO into 495 μl of human or mouse Li-heparin plasma (Innovative Research, Cat. No, IPLALIH5OML (human) and IMS-BC-N (Balb C mouse). The spiked plasma was distributed in 50 μl aliquots into capped PCR tubes for incubation at 37° C. At each time point (0, 2, 6, 24 hours*) 3*aliquots were withdrawn from the incubator. Enzymatic reactions were quenched directly after withdrawal by adding 100 μl of acetonitrile/formic acid=99/1 (v/v). Quenched samples were stored at ambient temperature until the end of the incubation period (24 hrs*). After centrifugation, the supernatant was transferred into fresh vials and analyzed by LC-MS/MS in ESI positive mode (Waters ACQUITY UPLC I-Class System (SM-FTN) with Xevo TQD triple quadrupole mass spectrometer with control software Waters MassLynx). […] Values below the limit of quantification (0.1 μM) and outliers of triplicate results were excluded from further calculations. An exponential regression curve was fitted onto the concentration results. Half-life times were calculated from the slope of the regression curve (t1/2=ln(2)/slope).
(§2) For some samples, as indicated below, the incubation time was 6 hours. The 24 hour data was measured in triplicates whereas the 6 hour data was measured in duplicates.

[3] = Plasma stability, mouse plasma; conditions: for half-life: plasma
Protocol: as §1, §2

[4] = Balb C, mouse, Li-heparin plasma
[5] = mouse plasma, 37° C., timepoint 0 h
[6] = mouse plasma, 37° C., timepoint 2 h
[7] = mouse plasma, 37° C., timepoint 6 h
[8] = mouse plasma, 37° C., timepoint 24 h

Ac(C-Alexa680)(PEG6)PSRLEEELRRRLTE-NH2 ({Ac-C(Alexa680)-PEG6′}-PSRLEEELRRRLTE-NH2) [linear ALFA peptide, linear ALFA-peptide conjugated to AlexaFluor680, reference compound]
binding to target expressing cells (AlexaFluor680 signal) [1]: bind only to target expressing cells previously incubated with the NbALFA×anti-Target Adaptor-Protein
binding on the controls [1]: No binding

CC(=O)N[C@@H](CO)C(=O)N[C@@H](CCCNC(=N)N)C(=O)N[C@@H](CC(C)C)C(=O)N[C@@H](CCC(=O)O)C(=O)N[C@H]1CC(=O)NCCCC[C@@H](C(=O)N[C@@H](CCCNC(=N)N)C(=O)N[C@@H](CC(C)C)C(=O)N[C@H](C(=O)N[C@@H](CCC(=O)O)C(N)=O)[C@@H](C)O)NC(=O)[C@H](CCCNC(=N)N)NC(=O)[C@H](CC(C)C)NC(=O)[C@H](CCC(=O)O)NC1=O [SD15196, Ac-Ser-Arg-Leu-Glu-(cyclo5)Asp-Glu-Leu-Arg-(cyclo9)Lys-Arg-Leu-Thr-Glu-NH2] (Ac-SRLEDELRKRLTE-NH2; lactam 5-9)
LogEC50 (anti-ALFA VHH; best-fit values, log(agonist) vs. response, variable slope): 2.576
EC50 (anti-ALFA VHH; binding to anti-ALFA VHH): 377 nM
Kd (NbALFA): 0.436 nM
ka (NbALFA): 1.81e+07 M⁻¹ s⁻¹
kd (NbALFA): 0.0079 s⁻¹
Conc. (% of T0) ([2]; timepoint 0 h): 100.0 % of T0
Mean (compound concentration) ([2]; timepoint 0 h): 2.42
Tube 2 (compound concentration) ([2]; timepoint 0 h): 2.424
Tube 3 (compound concentration) ([2]; timepoint 0 h): 2.518
Tube 1 (compound concentration) ([2]; timepoint 0 h, calibration range 0.1 to 10 μM): 2.314
Mean (compound concentration) ([2]; timepoint 2 h): 2.21
Tube 1 (compound concentration) ([2]; timepoint 2 h): 2.188
Tube 2 (compound concentration) ([2]; timepoint 2 h): 2.234
Tube 3 (compound concentration) ([2]; timepoint 2 h): 2.212
Mean (compound concentration) ([2]; timepoint 6 h): 1.73
Tube 1 (compound concentration) ([2]; timepoint 6 h): 1.843
Tube 2 (compound concentration) ([2]; timepoint 6 h): 1.803
Tube 3 (compound concentration) ([2]; timepoint 6 h): 1.545
Mean (compound concentration) ([2]; timepoint 24 h): 0.77
Tube 1 (compound concentration) ([2]; timepoint 24 h): 0.844
Tube 2 (compound concentration) ([2]; timepoint 24 h): 0.761
Tube 3 (compound concentration) ([2]; timepoint 24 h): 0.694
remaining at 24 h, 10 µM ([2]; human, Li-heparin plasma, Conc. (% of T0), timepoint 24 h): 31.7%
remaining at 2 h, 10 µM ([2]; human, human Li-heparin plasma, Conc. (% of T0), timepoint 2 h): 91.4%
remaining at 6 h, 10 µM ([2]; human, human Li-heparin plasma, Conc. (% of T0), timepoint 6 h): 71.5%
half-life ([2]; human, plasma, Half-life time, incubation 24 h (triplicates) or 6 h (duplicates)): 14.5 h
remaining at 2 h, 10 µM [3, 4]: 94.3%
remaining at 6 h, 10 µM [3, 4]: 80.5%
remaining at 24 h, 10 µM [3, 4]: 52.5%
Conc. (% of T0) [3, 5]: 100.0 % of T0
Mean (compound concentration) [3, 5]: 2.42
Tube 2 (compound concentration) [3, 5]: 2.424
Tube 3 (compound concentration) [3, 5]: 2.497
Tube 1 (compound concentration) ([3]; mouse plasma, 37° C., timepoint 0 h, calibration range 0.1 to 10 μM): 2.336
Mean (compound concentration) [3, 6]: 2.28
Tube 1 (compound concentration) [3, 6]: 2.277
Tube 2 (compound concentration) [3, 6]: 2.329
Tube 3 (compound concentration) [3, 6]: 2.237
Mean (compound concentration) [3, 7]: 1.95
Tube 1 (compound concentration) [3, 7]: 1.96
Tube 2 (compound concentration) [3, 7]: 2.008
Tube 3 (compound concentration) [3, 7]: 1.874
Mean (compound concentration) [3, 8]: 1.27
Tube 1 (compound concentration) [3, 8]: 1.334
Tube 2 (compound concentration) [3, 8]: 1.273
Tube 3 (compound concentration) [3, 8]: 1.201
half-life ([3]; mouse, Flag (half-life, assay exceeded), mouse plasma, 37° C.): > 24 h
half-life ([3]; mouse, Half-life time, mouse plasma, 37° C., incubation 24 h (triplicates) or 6 h (duplicates)): 26.2 h

Ac(C-Alexa680)(PEG6)PSRLE(E)ELR(K)RLTE-NH2 [cyclic ALFA peptide]
binding to target expressing cells (AlexaFluor680 signal) [1]: bind only to target expressing cells previously incubated with the NbALFA×anti-Target Adaptor-Protein
binding on the controls [1]: No binding
